Data: US20060241108A1, “Substituted phenoxazines and acridones as inhibitors of AKT” (St. Jude Children's Research Hospital, priority 2005, published 2006)

Tests used:
Format in all cases: cell-based, human
AKT = assay: Inhibition of IGF-I stimulated AKT phosphorylation (Ser473) in Rh1 cells, Western blot; conditions: for Inhibition (phosphorylation of AKT at Ser 473): 5 μM, 1 hour, serum starved Rh1 cells, IGF-I 10 ng/ml 10 minutes, average of two experiments
Experimental: Cell lines and growth conditions. The human cell lines Rh1, Rh18, and Rh30 (ATCC Deposit # CRL 2061) have been described, e.g., by Hazelton et al. Cancer Res 1987;47:4501-4507 and Hosoi et al. Cancer Res. 1999;59:886-894. Rh1, Rh18 and Rh30 cells can each be grown in antibiotic free RPMI-1640 medium (available from BioWhittaker, Walkersville, Md.), supplemented with 10% fetal bovine serum (available from HyClone Laboratories, Logan, Utah) and 2 mM L-glutamine (available from BioWhittaker, Walkersville, Md.) at 37° C. in an atmosphere of 5% CO2. For serum free experiments, cells can be cultured in modified N2E (MN2E) medium (DMEM/F-12, 1:1 mixture) (Sigma, St. Louis, Mo.) supplemented with 1 μg/ml human holo transferrin, 30 nM sodium selenite, 20 nM progesterone, 100 μM putrescine, 30 nM vitamin E phosphate, and 50 μM ethanolamine. Cells in MN2E medium containing 5 μg/ml bovine fibronectin (available from Sigma, St. Louis, Mo.) are preferably plated, and allowed to attach overnight at 37° C. in a humidified, 5% CO2 atmosphere.
(§1) Cellular screening for inhibitors. Rh1, Rh18 and Rh30 cells can each be seeded at a density of 4×10^6/10-cm plate in serum-free medium for overnight attachment. The cells can then be exposed to 0.1% DMSO or to a test compound (for example, a phenoxazine or acridone compound) for one hour, then stimulated with Insulin-like growth factor-I (IGF-I) (10 ng/ml) for 10 minutes.
(§2) Western blot analysis. Cells are rapidly washed with ice-cold phosphate-buffered saline (PBS), placed on ice, and lysed in mammalian protein extraction reagent (M-PER; available from Pierce, Rockford, Ill.) containing one Complete™ mini protease inhibitor tablet (available from Boehringer Mannheim, Mannheim, Germany), 1 mM phenylmethylsulfonyl fluoride, 1 mM Na3VO4 and 1 mM NaF. Cellular debris is pelleted by centrifugation at 17,500×g for 10 minutes at 4° C. The protein concentration of the supernatants is measured by the bicinchoninic acid assay (e.g., using the BCA™ Protein Assay Kit, Pierce, Rockford, Ill., catalog number 23225 or 23227) using bovine serum albumin as the standard.
For the analysis of AKT, ERK-1/2, mTOR, p70S6 kinase, ribosomal protein S6 (rpS6 or S6), and glycogen synthase kinase 3 (GSK-3), equivalent amounts of protein can be separated on a 12% SDS-polyacrylamide gel (available from BioRad, Hercules, Calif.) by electrophoresis and subsequently transferred to a nitrocellulose membrane (also available from BioRad). After a 1 hour incubation in 1×TBS containing 0.05% Tween 20 and 5% blocking reagent (skim milk) (available from Upstate Biotechnology, Lake Placid, N.Y.) at room temperature, the wet nitrocellulose membranes are incubated with appropriate antibodies (available from Cell Signaling Technology, Beverly, Mass.): rabbit polyclonal antiserum specific for the phosphorylated Ser473 or Thr308 of AKT (dilution 1:1000); rabbit polyclonal antiserum specific for phosphorylated Thr202/Tyr204 of ERK-1/2 (dilution 1:1000); rabbit polyclonal antiserum specific for phosphorylated Ser2448 or Ser2481 of mTOR (dilution 1:1000); rabbit polyclonal antiserum specific for phosphorylated Thr389 of p70S6 kinase (dilution 1:4000); rabbit polyclonal antiserum specific for phosphorylated Ser235/236 of rpS6 (dilution 1:1000); or rabbit polyclonal antiserum specific for phosphorylated Ser21/9 of GSK-3α/β (dilution 1:1000). Horseradish peroxidase-conjugated goat anti-rabbit IgG antibody (dilution 1:10,000) can be used as the secondary antibody. Immunoreactive protein can be visualized using Renaissance chemiluminescence reagent (available from Life Science Products Inc., Boston, Mass.).
For these assays, Rh1 cells are seeded in serum-free medium for overnight attachment. The serum starved Rh1 cells are then exposed to 1-5 μM of a compound in Table I for 1 hour before stimulating with IGF-I (10 ng/ml) for 10 minutes. […]

[1] = system: Rh1, Rh18 and/or Rh30 cells; assay: Determination of apoptosis, cell line not specified for the result
Excerpt: Determination of apoptosis.
Similar experiments can be performed using compounds that are relatively poor inhibitors of AKT in vitro but, preferably, are chemically similar to the phenoxazine or other compounds tested that are effective inhibitors of AKT. For example, the apoptosis of cells in response to the phenoxazine compound 12B or 20B, which are relatively poor inhibitors of AKT in vitro, can be compared to apoptosis of cells in response to the chemically similar compounds 10B and/or 15B, which are effective AKT inhibitors. In this way, a skilled practitioner can evaluate whether apoptosis observed in response to an effective AKT inhibitor (e.g., apoptosis observed in response to compound 10B or 15B) is due to a general toxic effect rather than AKT inhibition.

AKT, mTOR and rpS6 [2] = assay: IGF-1-induced phosphorylation of AKT, mTOR and rpS6 in serum-starved Rh18 cells
Experimental: as §1
as §2, with “standard. […]” for “standard.”

AKT, mTOR and rpS6 [3] = assay: IGF-1-induced phosphorylation of AKT, mTOR and rpS6 in serum-starved Rh30 cells
Experimental: as §1
as §2, with “standard. […]” for “standard.”

[4] = system: mTOR (Ser2448 and Ser2481), rpS6 (Ser235/236) and p70S6 kinase (Thr389); assay: IGF-I induced phosphorylation of AKT downstream targets in Rh1 cells, Western blot; conditions: 3.5 to 5.0 μM, 1 hour, Rh1 cells serum-free, IGF-I 10 minutes
Experimental: as §1, §2
For the analysis of AKT, ERK-1/2, mTOR, p70S6 kinase, ribosomal protein S6 (rpS6 or S6), and glycogen synthase kinase 3 (GSK-3), equivalent amounts of protein can be separated on a 12% SDS-polyacrylamide gel (available from BioRad, Hercules, Calif.) by electrophoresis and subsequently transferred to a nitrocellulose membrane (also available from BioRad). […]

Compound	Inhibition (phosphorylation of AKT at Ser 473) (AKT)	induction of apoptosis [1]	further results
10-(4′-N-piperidinobutyl)-2-chlorophenoxazine [Compound 13B]	+++ (+++ ≈ 75% inhibition)	significant increase in the proportion of apoptotic cells	
10-(4′-N-pyrrolidinobutyl)-2-chlorophenoxazine [Compound 14B]	+++ (+++ ≈ 75% inhibition)	significant increase in the proportion of apoptotic cells	
10-(N-pyrrolidinoacetyl)-2-chlorophenoxazine [Compound 20B]	−−− (−−− <25% inhibition)	neither the compound 12B or 20B	block of IGF-1-induced phosphorylation of AKT, mTOR and rpS6 (AKT, mTOR and rpS6 [2]): possible exception; block of IGF-1-induced phosphorylation of AKT, mTOR and rpS6 (AKT, mTOR and rpS6 [3]): possible exception
10-[3′-[(β-hydroxyethyl)piperazino]propyl]-2-chlorophenoxazine [Compound 8B]	+++ (+++ ≈ 75% inhibition)		inhibition of IGF-I induced phosphorylation of mTOR, rpS6 and p70S6 kinase [4]: markedly inhibited
OCCN(CCO)CCCCN1c2ccccc2Oc2ccc(Cl)cc21 [Compound 11B, 10-[4′-[N-bis(hydroxyethyl)amino]butyl]-2-chlorophenoxazine]	+++ (+++ ≈ 75% inhibition)	significant increase in the proportion of apoptotic cells	
Clc1ccc2c(c1)N(CCCCN1CCOCC1)c1ccccc1O2 [Compound 12B, 10-(4′-N-morpholinobutyl)-2-chlorophenoxazine]	−−− (−−− <25% inhibition)	neither the compound 12B or 20B	
O=C(CN1CCOCC1)N1c2ccccc2Oc2ccc(Cl)cc21 [Compound 18B, 10-(N-morpholinoacetyl)-2-chlorophenoxazine]	−−− (−−− <25% inhibition)		
O=C(CN1CCCCC1)N1c2ccccc2Oc2ccc(Cl)cc21 [Compound 19B, 10-(N-piperidinoacetyl)-2-chlorophenoxazine]	−−− (−−− <25% inhibition)		
c1ccc(CNCCCN2c3ccccc3Oc3ccccc32)cc1 [Compound 22A, 10-(3′-N-benzylaminopropyl)-phenoxazine]	+++ (+++ ≈ 75% inhibition)		inhibition of cellular AKT activation (AKT; at the concentrations examined in this assay (1-5 μM)): minimal inhibition
